One may read the bioavailability as the share of a dose that reaches the circulation, judged against a reference dose that is usually intravenous. The term clearance denotes a measure of how efficiently the substance is removed, as volume per time. A higher clearance goes with a high capacity for elimination.

We go through 2 compounds from ChEMBL document CHEMBL3881526, “Selective androgen receptor modulators and method of use thereof” (2007).

Series [1] has as its system Rattus norvegicus. The series is described as follows: Suppression of serum FSH in ORX Sprague-Dawley rat at =>0.3 mg/day delivered at constant rate for 14 days via subcutaneous osmotic pumps. The series is classed as functional.
For series [2], the system named is Rattus norvegicus. Kind of series: Anabolic activity in ORX Sprague-Dawley rat assessed as restoration of levator ani muscle weight at 0.1 to 1 ug/day delivered at constant rate for 14 days via subcutaneous osmotic pumps. Type of series: functional.
The subject of series [3] is Rattus norvegicus. The series is described as follows: Androgenic activity in ORX Sprague-Dawley rat assessed as restoration of seminal vesicles weight at 0.1 to 1 ug/day delivered at constant rate for 14 days via subcutaneous osmotic pumps. The series is classed as functional.
The nature of series [4]: Toxicity in ORX Sprague-Dawley rat assessed as induction of toxicity signs at 0.1 to 1 ug/day delivered at constant rate for 14 days via subcutaneous osmotic pumps by visual examination test. Particulars: in vivo, sc, 336 h.
Series [5] concerns Rattus norvegicus. Kind of series: Effect on lung weight in ORX Sprague-Dawley rat at 0.1 to 1 ug/day delivered at constant rate for 14 days via subcutaneous osmotic pumps. The series is classed as ADME, tissue-based. The note with it: sc, 336 h.
Series [6] deals with Rattus norvegicus. Kind of series: Effect on spleen weight in ORX Sprague-Dawley rat at 0.1 to 1 ug/day delivered at constant rate for 14 days via subcutaneous osmotic pumps. The series is classed as ADME, tissue-based. Particulars: in vivo, sc, 336 h.
A short description of series [7]: Toxicity in ORX Sprague-Dawley rat assessed as induction of toxicity signs at 0.1 to 1 ug/day delivered at constant rate for 14 days via subcutaneous osmotic pumps by diagnostic hematology test. The note with it: in vivo, sc, 336 h.
Series [8] deals with Rattus norvegicus. Kind of series: Effect on heart weight in ORX Sprague-Dawley rat at 0.1 to 1 ug/day delivered at constant rate for 14 days via subcutaneous osmotic pumps. The series is classed as ADME, tissue-based. Particulars: in vivo, sc, 336 h.
The test system of series [9] is Rattus norvegicus. Kind of series: Androgenic activity in ORX Sprague-Dawley rat assessed as restoration of prostate weight at 0.1 to 1 ug/day delivered at constant rate for 14 days via subcutaneous osmotic pumps. Type of series: functional.
The test system of series [10] is Rattus norvegicus. Kind of series: Effect on serum FSH in ORX Sprague-Dawley rat at 0.3 mg/day delivered at constant rate for 14 days via subcutaneous osmotic pumps. The note with it: sc, 336 h. Type of series: ADME.
Series [11] has as its system Rattus norvegicus. The series is described as follows: Effect on serum LH in ORX Sprague-Dawley rat at 0.3 mg/day delivered at constant rate for 14 days via subcutaneous osmotic pumps. The series is classed as ADME. The note with it: sc, 336 h.
Series [12] is described as follows: Oral bioavailability in beagle dog at 10 mg/kg administered via capsule after 72 hrs by HPLC analysis. Type of series: ADME, organism-based, Canis lupus familiaris. Particulars: in vivo.
Series [13] relates to Rattus norvegicus. Kind of series: Androgenic activity in ORX Sprague-Dawley rat assessed as restoration of prostate weight at 1000 ug/day delivered at constant rate for 14 days via subcutaneous osmotic pumps. Type of series: functional, tissue-based.
Series [14] can be described thus: Oral bioavailability in beagle dog at 10 mg/kg administered via solution after 72 hrs by HPLC analysis. Particulars: in vivo. The series is classed as ADME, organism-based, Canis lupus familiaris.
The test system of series [15] is Rattus norvegicus. The series is described as follows: Androgenic activity in ORX Sprague-Dawley rat assessed as restoration of seminal vesicles weight at 1000 ug/day delivered at constant rate for 14 days via subcutaneous osmotic pumps. The series is classed as functional, tissue-based.
Series [16] relates to Rattus norvegicus. The series is described as follows: Anabolic activity in ORX Sprague-Dawley rat assessed as restoration of levator ani muscle weight at 1000 ug/day delivered at constant rate for 14 days via subcutaneous osmotic pumps. Type of series: functional, tissue-based.
The nature of series [17]: Terminal half life in beagle dog at 3 mg/kg, iv after 72 hrs by HPLC analysis. The series is classed as ADME, organism-based, Canis lupus familiaris. Particulars: in vivo, read-out: beta t1/2 (converted).
Series [18] is described as follows: Plasma clearance in beagle dog at 3 mg/kg, iv after 72 hrs by HPLC analysis. The series is classed as ADME, organism-based, Canis lupus familiaris.

Structures are written as SMILES. The source made the active and inactive calls. The calls are words filed in the database; no cut-off is given here. A value given as a limit tells only on which side of the number the result lay.

For the compound `C[C@](O)(COc1ccc(F)cc1)C(=O)Nc1ccc([N+](=O)[O-])c(C(F)(F)F)c1`, the result in series [1] and in series [2] was Active. The Activity in [3] is reported as less than 40%; in series [4], “Non-Toxic”; in [5], “Non-Toxic”; in [6] it was “Non-Toxic”; in series [7] it was “Non-Toxic”; in [8], “Non-Toxic”. Further, in series [9], the Activity is listed as less than 40%.

Consider `CC(=O)Nc1ccc(OC[C@](C)(O)C(=O)Nc2ccc([N+](=O)[O-])c(C(F)(F)F)c2)cc1`, for which the Activity result is “Non-Toxic” in series [10]; “Non-Toxic” in series [11]; “Dose-dependent effect” in series [2]; “Dose-dependent effect” in [3]; “Dose-dependent effect” in series [9]. Further, the bioavailability in series [12] came out at 19%; in [14], 38%. For the same compound, the result in [13], in series [15] and in series [16] was Active. The half-life in series [17] was 4 h. This compound also showed a clearance in series [18] of 4.4 mL/min/kg.
